{"source": "patent US7220864B2", "about": "“Dihydronaphthalene derivative compounds and agent comprising the derivative as active ingredient” (Ono Pharmaceutical Co., Ltd., priority 2000, dated 2007)", "key": {"[1]": {"target": "T1, human PPAR α (Homo sapiens, UniProt Q07869)", "T1 construct": "expressed in transfected cells; host or cells: CV-1 cells", "T1 sequence (Q07869 167-468)": "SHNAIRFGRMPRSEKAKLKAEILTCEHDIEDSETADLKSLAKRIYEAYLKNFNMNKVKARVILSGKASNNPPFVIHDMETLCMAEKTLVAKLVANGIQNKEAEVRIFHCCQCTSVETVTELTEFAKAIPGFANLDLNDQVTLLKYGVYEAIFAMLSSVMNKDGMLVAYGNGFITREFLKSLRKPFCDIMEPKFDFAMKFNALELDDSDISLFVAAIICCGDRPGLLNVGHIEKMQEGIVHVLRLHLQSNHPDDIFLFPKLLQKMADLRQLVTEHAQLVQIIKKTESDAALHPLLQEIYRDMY", "experiment": "Luciferase assay using human PPAR α (PPAR α agonistic activity)", "type": "cell-based", "conditions": "compound 10 μM; CV-1 cells with Gal4-human PPAR α LBD chimera and luciferase reporter; luciferase activity of carbacyclin (10 μM) defined as 1.0"}, "[2]": {"target": "T2, human PPAR γ (Homo sapiens, UniProt P37231)", "T2 construct": "expressed in transfected cells; host or cells: CV-1 cells", "T2 sequence (P37231 204-505)": "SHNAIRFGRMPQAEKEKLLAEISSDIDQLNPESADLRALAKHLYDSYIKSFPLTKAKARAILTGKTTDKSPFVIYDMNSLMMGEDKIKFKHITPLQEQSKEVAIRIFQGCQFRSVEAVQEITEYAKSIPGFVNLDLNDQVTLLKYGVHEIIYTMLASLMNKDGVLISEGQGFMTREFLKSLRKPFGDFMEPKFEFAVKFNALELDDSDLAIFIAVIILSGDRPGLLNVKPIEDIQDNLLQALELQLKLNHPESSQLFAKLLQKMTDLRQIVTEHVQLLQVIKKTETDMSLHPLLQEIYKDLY", "experiment": "Luciferase assay using human PPAR γ (PPAR γ agonistic activity)", "type": "cell-based", "conditions": "compound 10 μM; CV-1 cells with Gal4-human PPAR γ LBD chimera and luciferase reporter; luciferase activity of troglitazone (10 μM) defined as 1.0"}}, "data": [{"smiles": "O=C(O)CCCCC1=CCCc2c(OCc3ccc4ccccc4n3)cccc21", "note": "[comprative compound]", "values": [{"measurement": "Relative Activity to a positive control compound (carbacyclin = 1)", "setting": "[1]", "value": 0.01}, {"measurement": "Relative Activity to a positive control compound (troglitazone = 1)", "setting": "[2]", "value": 0.004}]}]}
